The test system of experiment [1] is Hepatitis C virus. Kind of experiment: Anti-viral activity test (HCVcc, Type 2a), JFH 5a-Rluc luciferase in Huh7.5.1 cell line. Type of experiment: cell-based. The settings on record: for inhibition: Huh-7.5.1, luciferase activity, negative control = 100%, Huh7.5.1 cells infected with JFH 5a-Rluc, read-out: HCV inhibition rate %; for EC50: Huh-7.5.1, read-out: EC50 (concentration of compound to inhibit the 50% of viral growth). As for the experimental part: The inhibitory effect of the oxazolidinone compounds on HCV replicon and NS5A were HCV was tested by the method disclosed in KR-A 10-2010-0007937 or US-A 2010/0215696.
The cell lines containing replicon were prepared by preparing JFH 5a-Rluc (plasmid expressing Renilla luciferase reporter protein) RNA according to the method disclosed in the documents, introducing the JFH 5a-Rluc RNA into host cell lines (Huh7.5.1 cell line) by electroporation and infecting the host cell lines (Zhnog et al., Proc. Natl. Acad. Sci. USA, 102, 9294-9299). After the infected cell lines were cultured with or without the treatment of the oxazolidinone compound, the luciferase activity was detected to obtain the inhibitory effect of […] replicon replication. EC50) of the compound was determined by performing the test at various concentrations of the compound.
The compounds Example 1 to 17 were tested for anti-viral activity on Hepatitis C virus, according to the method of KR10-2010-0007937 (published on Jan. 22, 2010) or US2010/0215696 (published on Aug. 26, 2010).
The cell lines containing replicon were prepared by preparing JFH 5a-Rluc (plasmid expressing Renilla luciferase reporter protein) RNA according to the method disclosed in the documents, introducing the JFH 5a-Rluc RNA into host cell lines (Huh7.5.1 cell line) by electroporation and infecting the host cell lines (Zhnog et al., Proc. Natl. Acad. Sci. USA, 102, 9294-9299). After the infected cell lines were cultured with or without the treatment of 1 mM of the oxazolidinone compounds of Examples 1 to 17, the host cell lines were obtained on 1, 2 and 3 days after treatment, and the luciferase activity produced from the host cells was measured.
The luciferase activity of negative control which was not treated with the oxazolidinone compound is set to 100%. At various amounts of the oxazolidinone compounds, the luciferase activities were calculated based on the negative control to obtain the inhibition rate of HCV (%). The positive control was Interferon (INF)(Sigma, SRP4595).

The test system of experiment [2] is Hepatitis C virus. Described as above. Type of experiment: cell-based, Hepatitis C virus (HCVcc. Conditions: for inhibition at 0.001 µM: Hepatitis C virus, Huh-7.5.1, read-out: inhibition rate; for remnant HCV amount: treated at a concentration of 1 nM.

The structures appear in SMILES notation.

One may read the inhibition as the relative decrease from the control value, in per cent. Consider `CC(C)(C)OC(=O)N1CCC[C@H]1c1ncc(-c2ccc(-c3ccc(N4C[C@H](Cn5ccnn5)OC4=O)cc3F)cc2)[nH]1` [Example 1, tert-Butyl(S)-2-(5-(4′-((R)-5-((1H-1,2,3-triazol-1-yl)methyl)-2-oxooxazolidin-3-yl)-2′-fluoro-[1,1′-biphenyl]-4-yl)-1H-imidazol-2-yl)pyrrolidine-1-carboxylate], for which the inhibition in the experiment on Hepatitis C virus [1] is 31.7%. `CC(=O)N1CCC[C@H]1c1ncc(-c2ccc(-c3ccc(N4C[C@H](Cn5ccnn5)OC4=O)cc3F)cc2)[nH]1` [Example 2, (R)-5-((1H-1,2,3-Triazol-1-yl)methyl)-3-(4′-(2-((S)-1-acetylpyrrolidin-2-yl)-1H-imidazol-5-yl)-2-fluoro-[1,1′-biphenyl]-4-yl)oxazolidin-2-one]: the inhibition in the experiment on Hepatitis C virus [1] is 32%.

In the case of `COC(=O)N[C@H](C(=O)N1CCC[C@H]1c1ncc(-c2ccc(-c3ccc(N4C[C@H](Cn5ccnn5)OC4=O)cc3F)cc2)[nH]1)C(C)C` [Example 3, Methyl ((S)-1-((S)-2-(5-(4′-((R)-5-((1H-1,2,3-triazol-1-yl)methyl)-2-oxooxazolidin-3-yl)-2′-fluoro-[1,1′-biphenyl]-4-yl)-1H-imidazol-2-yl)pyrrolidin-1-yl)-3-methyl-1-oxobutan-2-yl)carbamate], in the experiment with Hepatitis C virus [1], the inhibition worked out at 99.8% and the EC50 came to 0.98 nM. For the same molecule, in the experiment on Hepatitis C virus [2], the inhibition at 0.001 µM turned out to be 78.9% and the “remnant HCV amount” value came to 21.1%.

Turning to `COC(=O)N[C@H](C(=O)N1CCC[C@H]1c1ncc(-c2ccc(-c3ccc(N4C[C@H](Cn5ccnn5)OC4=O)cc3F)cc2)[nH]1)c1ccccc1` [Example 4, methyl ((S)-2-((S)-2-(5-(4′-((R)-5-((1H-1,2,3-triazol-1-yl)methyl)-2-oxooxazolidin-3-yl)-2′-fluoro-[1,1′-biphenyl]-4-yl)-1H-imidazol-2-yl)pyrrolidin-1-yl)-2-oxo-1-phenylethyl)carbamate], the inhibition with Hepatitis C virus [1] was determined as 95.2%. For the molecule `COC(=O)N[C@H](C(=O)N1CCC[C@H]1c1ncc(-c2ccc(-c3ccc(N4C[C@H](Cn5cc(CO)nn5)OC4=O)cc3F)cc2)[nH]1)C(C)C` [Example 5, Methyl ((S)-1-((S)-2-(5-(2′-fluoro-4′-((R)-5-((4-(hydroxymethyl)-1H-1,2,3-triazol-1-yl)methyl)-2-oxooxazolidin-3-yl)-[1,1′-biphenyl]-4-yl)-1H-imidazol-2-yl)pyrrolidin-1-yl)-3-methyl-1-oxobutan-2-yl)carbamate], the inhibition in the experiment with Hepatitis C virus [1] worked out at 95.8%. For the molecule `COC(=O)N[C@H](C(=O)N1CCC[C@H]1c1ncc(-c2ccc(-c3ccc(N4C[C@H](Cn5cc(CCO)nn5)OC4=O)cc3F)cc2)[nH]1)C(C)C` [Example 6, Methyl ((S)-1-((S)-2-(5-(2′-fluoro-4′-((R)-5-((4-(2-hydroxyethyl)-1H-1,2,3-triazol-1-yl)methyl)-2-oxooxazolidin-3-yl)-[1,1′-biphenyl]-4-yl)-1H-imidazol-2-yl)pyrrolidin-1-yl)-3-methyl-1-oxobutan-2-yl)carbamate], the inhibition in the experiment with Hepatitis C virus [1] was found to be 84.4%. For the molecule `COCc1cn(C[C@H]2CN(c3ccc(-c4ccc(-c5cnc([C@@H]6CCCN6C(=O)[C@@H](NC(=O)OC)C(C)C)[nH]5)cc4)c(F)c3)C(=O)O2)nn1` [Example 7, Methyl ((S)-1-((S)-2-(5-(2′-fluoro-4′-((R)-5-((4-(methoxymethyl)-1H-1,2,3-triazol-1-yl)methyl)-2-oxooxazolidin-3-yl)-[1,1′-biphenyl]-4-yl)-1H-imidazol-2-yl)pyrrolidin-1-yl)-3-methyl-1-oxobutan-2-yl)carbamate], the inhibition in the experiment with Hepatitis C virus [1] worked out at 83.3%. Turning to `COC(=O)N[C@H](C(=O)N1CCC[C@H]1c1ncc(-c2ccc(-c3ccc(N4C[C@H](Cn5cc(COC(C)=O)nn5)OC4=O)cc3F)cc2)[nH]1)C(C)C` [Example 8, 1-(((R)-3-(2-Fluoro-4′-(2-((S)-1-((methoxycarbonyl)-L-valyl)pyrrolidin-2-yl)-1H-imidazol-5-yl)-[1,1′-biphenyl]-4-yl)-2-oxooxazolidin-5-yl)methyl)-1H-1,2,3-triazol-4-yl)methyl acetate], in the experiment on Hepatitis C virus [1], the inhibition stood at 79.8%.

With `COC(=O)N[C@H](C(=O)N1CCC[C@H]1c1ncc(-c2ccc(-c3ccc(N4C[C@H](Cn5cc(COCc6ccccc6)nn5)OC4=O)cc3F)cc2)[nH]1)C(C)C` [Example 9, Methyl ((S)-1-((S)-2-(5-(4′-((R)-5-((4-((benzyloxy)methyl)-1H-1,2,3-triazol-1-yl)methyl)-2-oxooxazolidin-3-yl)-2′-fluoro-[1,1′-biphenyl]-4-yl)-1H-imidazol-2-yl)pyrrolidin-1-yl)-3-methyl-1-oxobutan-2-yl)carbamate], in the experiment on Hepatitis C virus [1], the inhibition stood at 97.3% and the EC50 came to 17.4 nM. For the same molecule, in the experiment on Hepatitis C virus [2], the inhibition at 0.001 µM came to 97% and the “remnant HCV amount” value was found to be 3.0%. Regarding `COC(=O)N[C@H](C(=O)N1CCC[C@H]1c1ncc(-c2ccc(-c3ccc(N4C[C@H](Cn5cc(CNC(C)=O)nn5)OC4=O)cc3F)cc2)[nH]1)C(C)C` [Example 10, Methyl ((S)-1-((S)-2-(5-(4′-((R)-5-((4-(acetamidomethyl)-1H-1,2,3-triazol-1-yl)methyl)-2-oxooxazolidin-3-yl)-2′-fluoro-[1,1′-biphenyl]-4-yl)-1H-imidazol-2-yl)pyrrolidin-1-yl)-3-methyl-1-oxobutan-2-yl)carbamate], in the experiment with Hepatitis C virus [1], the inhibition stood at 32.8%.

As to `COC(=O)N[C@H](C(=O)N1CCC[C@H]1c1ncc(-c2ccc(-c3ccc(N4C[C@H](Cn5cc(-c6ccccc6)nn5)OC4=O)cc3F)cc2)[nH]1)C(C)C` [Example 11, Methyl ((S)-1-((S)-2-(5-(2′-fluoro-4′-((R)-2-oxo-5-((4-phenyl-1H-1,2,3-triazol-1-yl)methyl)oxazolidin-3-yl)-[1,1′-biphenyl]-4-yl)-1H-imidazol-2-yl)pyrrolidin-1-yl)-3-methyl-1-oxobutan-2-yl)carbamate], in the experiment on Hepatitis C virus [1], the inhibition is 96.7%. In the experiment with Hepatitis C virus [2], the inhibition at 0.001 µM stood at 95.2% and the “remnant HCV amount” value is recorded as 6.8%. For `COC(=O)N[C@H](C(=O)N1CCC[C@H]1c1ncc(-c2ccc(-c3ccc(N4C[C@H](CNC(C)=O)OC4=O)cc3F)cc2)[nH]1)C(C)C` [Example 12, Methyl ((S)-1-((S)-2-(5-(4′-((S)-5-(acetamidomethyl)-2-oxooxazolidin-3-yl)-2′-fluoro-[1,1′-biphenyl]-4-yl)-1H-imidazol-2-yl)pyrrolidin-1-yl)-3-methyl-1-oxobutan-2-yl)carbamate] the same measures were 99.8%, 27% and 73%.

Regarding `CC(=O)NC[C@H]1CN(c2ccc(-c3ccc(-c4cnc([C@@H]5CCCN5C(=O)OC(C)(C)C)[nH]4)cc3)c(F)c2)C(=O)O1` [Example 13, tert-Butyl (S)-2-(5-(4′-((S)-5-(acetamidomethyl)-2-oxooxazolidin-3-yl)-2′-fluoro-[1,1′-biphenyl]-4-yl)-1H-imidazol-2-yl)pyrrolidine-1-carboxylate], the inhibition in the experiment with Hepatitis C virus [1] was found to be 46.2%. In the case of `CC(=O)NC[C@H]1CN(c2ccc(-c3ccc(-c4cnc([C@@H]5CCCN5C(C)=O)[nH]4)cc3)c(F)c2)C(=O)O1` [Example 14, N—(((S)-3-(4′-(2-((S)-1-acetylpyrrolidin-2-yl)-H-imidazol-5-yl)-2-fluoro-[1,1′-biphenyl]-4-yl)-2-oxooxazolidin-5-yl)methyl)acetamide], the inhibition in the experiment with Hepatitis C virus [1] was 28%. Still for that read-out and setting: in the case of `COC(=O)N[C@H](C(=O)NC[C@H]1CN(c2ccc(-c3ccc(-c4cnc([C@@H]5CCCN5C(=O)OC(C)(C)C)[nH]4)cc3)c(F)c2)C(=O)O1)C(C)C` [Example 16, tert-Butyl (S)-2-(5-(2′-fluoro-4′-((S)-5-(((S)-2-((methoxycarbonyl)amino)-3-methylbutanamido)methyl)-2-oxooxazolidin-3-yl)-[1,1-biphenyl]-4-yl)-1H-imidazol-2-yl)pyrrolidine-1-carboxylate] it was 58%; in that of `COC(=O)N[C@H](C(=O)NC[C@H]1CN(c2ccc(-c3ccc(-c4cnc([C@@H]5CCCN5C(C)=O)[nH]4)cc3)c(F)c2)C(=O)O1)C(C)C` [Example 17, Methyl ((S)-1-((((S)-3-(4′-(2-((S)-1-acetylpyrrolidin-2-yl)-1H-imidazol-5-yl)-2-fluoro-[1,1′-biphenyl]-4-yl)-2-oxooxazolidin-5-yl)methyl)amino)-3-methyl-1-oxobutan-2-yl)carbamate], 38.1%.

(Values after patent US9422274B2, “Oxazolidinone derivatives and composition for preventing or treating hepatitis C containing the same” (KOREA INSTITUTE OF SCIENCE AND TECHNOLOGY, priority 2013, dated 2016).)
